Patent publication US6706663B2, “Herbicidal 3-heterocyclic substituted benzisothiazole and benzisoxazole compounds” (Wyeth, priority 2000, dated 2004)

Columns and labels:
[1] = tested on: ABUTH (Abutilon theophrasti); experiment: Postemergence herbicidal evaluation; format: in vivo, Medic.; details: postemergence
Summary of the method: (§1)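 Visual 0–9 injury scores versus control plants, covering stand, vigour, malformation, size, chlorosis and general appearance, taken four to five weeks post-spray and averaged over replicate tests. Plants were sprayed at roughly two weeks old and held on greenhouse benches.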

[2] = tested on: AMBEL (Ambrosia artemisifolia); experiment: Postemergence herbicidal evaluation; format: in vivo, L.; details: postemergence
Summary of the method: as §1

[3] = tested on: CASOB (Cassia obtusifolia); experiment: Postemergence herbicidal evaluation; format: in vivo, L.; details: postemergence
Summary of the method: as §1

[4] = tested on: CHEAL (Chenopodium album); experiment: Postemergence herbicidal evaluation; format: in vivo, L.; details: postemergence
Summary of the method: as §1

GALAP (Galium aparine) [5] = experiment: Postemergence herbicidal evaluation; format: in vivo; details: postemergence
Summary of the method: as §1

[6] = tested on: IPOHE (Ipomoea hederacea); experiment: Postemergence herbicidal evaluation; format: in vivo, (L.) Jacq.; details: postemergence
Summary of the method: as §1

[7] = tested on: ECHCG (Echinochloa crus-galli); experiment: Postemergence herbicidal evaluation; format: in vivo, (L.) Beau; details: postemergence
Summary of the method: as §1

[8] = tested on: GLXMAW (Soybean, Williams); experiment: Postemergence herbicidal evaluation; format: in vivo, Glycine max, (L.) Merr. cv Williams; details: postemergence
Summary of the method: as §1

ORYSAT (Rice, Tebonnet) [9] = experiment: Postemergence herbicidal evaluation; format: in vivo, Oryza sativa, (L.) Tebonnet; details: postemergence
Summary of the method: as §1

[10] = tested on: TRZAWR (Wheat, Winter, cv Riband); experiment: Postemergence herbicidal evaluation; format: in vivo, Triticum aestivum; details: postemergence
Summary of the method: as §1

ZEAMX (Corn, Field) [11] = experiment: Postemergence herbicidal evaluation; format: in vivo, Zea mays, L.; details: postemergence
Summary of the method: as §1

[12] = tested on: ABUTH (Abutilon theophrasti); experiment: Preemergence herbicidal evaluation; format: in vivo, Medic.; details: preemergence, rated 4-5 weeks after treatment
[13] = tested on: AMBEL (Ambrosia artemisifolia); experiment: Preemergence herbicidal evaluation; format: in vivo, L.; details: preemergence, rated 4-5 weeks after treatment
Summary of the method: (§2)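 Steps: mix seeds with potting soil; plant on ~1 inch soil per cup; spray compound in aqueous acetone; hold on greenhouse benches with routine watering; rate 0–9 visually against control at 4–5 weeks.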

GALAP (Galium aparine) [14] = experiment: Preemergence herbicidal evaluation; format: in vivo; details: preemergence, rated 4-5 weeks after treatment
Summary of the method: as §2

[15] = tested on: IPOHE (Ipomoea hederacea); experiment: Preemergence herbicidal evaluation; format: in vivo, (L.) Jacq.; details: preemergence, rated 4-5 weeks after treatment
[16] = tested on: ECHCG (Echinochloa crus-galli); experiment: Preemergence herbicidal evaluation; format: in vivo, (L.) Beau; details: preemergence, rated 4-5 weeks after treatment
Summary of the method: as §2

GLXMA (Soybean) = experiment: Preemergence herbicidal evaluation; format: in vivo, Glycine max, (L.) Merr.; details: preemergence, rated 4-5 weeks after treatment
ZEAMX (Corn, Field) [17] = experiment: Preemergence herbicidal evaluation; format: in vivo, Zea mays, L.; details: preemergence, rated 4-5 weeks after treatment
[18] = tested on: ECHORC (Echinochloa oryzoides); experiment: Flooded paddy, preemergence weed control; format: in vivo, Echinochloa oryzoides (Ard.) Fritsch.; details: rated 3-4 weeks after treatment, 0-9 rating scale
Summary of the method: (§3)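 Scoring used a 0-9 visual scale relative to control. Before that, seeds or propagules were planted shallowly in silt loam and flooded to 1.5–3 cm, a depth maintained throughout, with greenhouse care during the test.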

CYPIR (Cyperus iria) = experiment: Flooded paddy, preemergence weed control; format: in vivo; details: rated 3-4 weeks after treatment, 0-9 rating scale
Summary of the method: as §3

[19] = tested on: MOOVA (Monochoria vaginalis); experiment: Flooded paddy, preemergence weed control; format: in vivo, Presl.; details: rated 3-4 weeks after treatment, 0-9 rating scale
Summary of the method: as §3

[20] = tested on: SAGPY (Sagittaria pygmaea); experiment: Flooded paddy, preemergence weed control; format: in vivo, L.; details: rated 3-4 weeks after treatment, 0-9 rating scale
Summary of the method: as §3

ORYSAT (Rice, Tebonnet) [21] = experiment: Flooded paddy, post-transplant rice tolerance; format: in vivo, Oryza sativa, (L.) Tebonnet; details: in vivo
Summary of the method: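 Steps: transplant two ten-day-old seedlings into silt loam; flood to 1.5-3 cm above soil; apply herbicide post-transplant; maintain water on greenhouse benches; rate stand, vigor, malformation, size and chlorosis on a 0-9 visual scale versus control.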

## 5-[5-[3,6-dihydro-3-methyl-2,6-dioxo-4-(trifluoromethyl)-1(2H)-pyrimidinyl]-1,2-benzisothiazol-3-yl]-1,6-hydro-6-oxo-2,3-pyrazinedicarbonitrile [Compound 91]
[1]; rate 0.0320 kg/ha
  ABUTH herbicidal rating: 5.0
[1]; rate 0.0620 kg/ha
  ABUTH herbicidal rating: 7.0
[1]; rate 0.1250 kg/ha
  ABUTH herbicidal rating: 9.0
[2]; rate 0.0320 kg/ha
  AMBEL herbicidal rating: 4.0
[2]; rate 0.0620 kg/ha
  AMBEL herbicidal rating: 4.0
[2]; rate 0.1250 kg/ha
  AMBEL herbicidal rating: 5.0
[3]; rate 0.0320 kg/ha
  CASOB herbicidal rating: 0.0
[3]; rate 0.0620 kg/ha
  CASOB herbicidal rating: 3.0
[3]; rate 0.1250 kg/ha
  CASOB herbicidal rating: 4.0
[4]; rate 0.0320 kg/ha
  CHEAL herbicidal rating: 9.0
[4]; rate 0.0620 kg/ha
  CHEAL herbicidal rating: 9.0
[4]; rate 0.1250 kg/ha
  CHEAL herbicidal rating: 9.0
GALAP (Galium aparine) [5]; rate 0.0320 kg/ha
  GALAP herbicidal rating: 3.0
GALAP (Galium aparine) [5]; rate 0.0620 kg/ha
  GALAP herbicidal rating: 3.0
GALAP (Galium aparine) [5]; rate 0.1250 kg/ha
  GALAP herbicidal rating: 3.0
[6]; rate 0.0320 kg/ha
  IPOHE herbicidal rating: 7.0
[6]; rate 0.0620 kg/ha
  IPOHE herbicidal rating: 7.0
[6]; rate 0.1250 kg/ha
  IPOHE herbicidal rating: 8.0
[7]; rate 0.0320 kg/ha
  ECHCG herbicidal rating: 0.0
[7]; rate 0.0620 kg/ha
  ECHCG herbicidal rating: 0.0
[7]; rate 0.1250 kg/ha
  ECHCG herbicidal rating: 0.0
[8]; rate 0.0320 kg/ha
  GLXMAW herbicidal rating: 6.0
[8]; rate 0.0620 kg/ha
  GLXMAW herbicidal rating: 6.0
[8]; rate 0.1250 kg/ha
  GLXMAW herbicidal rating: 6.0
ORYSAT (Rice, Tebonnet) [9]; rate 0.0320 kg/ha
  ORYSAT herbicidal rating: 0.0
ORYSAT (Rice, Tebonnet) [9]; rate 0.0620 kg/ha
  ORYSAT herbicidal rating: 0.5
ORYSAT (Rice, Tebonnet) [9]; rate 0.1250 kg/ha
  ORYSAT herbicidal rating: 1.0
[10]; rate 0.0320 kg/ha
  TRZAWR herbicidal rating: 0.0
[10]; rate 0.0620 kg/ha
  TRZAWR herbicidal rating: 0.0
[10]; rate 0.1250 kg/ha
  TRZAWR herbicidal rating: 0.0
ZEAMX (Corn, Field) [11]; rate 0.0320 kg/ha
  ZEAMX herbicidal rating: 1.5
ZEAMX (Corn, Field) [11]; rate 0.0620 kg/ha
  ZEAMX herbicidal rating: 2.5
ZEAMX (Corn, Field) [11]; rate 0.1250 kg/ha
  ZEAMX herbicidal rating: 3.0
[12]; rate 0.0620 kg/ha
  Preemergence herbicidal rating ABUTH: 0.0
[12]; rate 0.1250 kg/ha
  Preemergence herbicidal rating ABUTH: 0.0
[12]; rate 0.2500 kg/ha
  Preemergence herbicidal rating ABUTH: 0.0
[13]; rate 0.0620 kg/ha
  Preemergence herbicidal rating AMBEL: 0.0
[13]; rate 0.1250 kg/ha
  Preemergence herbicidal rating AMBEL: 0.0
[13]; rate 0.2500 kg/ha
  Preemergence herbicidal rating AMBEL: 0.0
GALAP (Galium aparine) [14]; rate 0.0620 kg/ha
  Preemergence herbicidal rating GALAP: 0.0
GALAP (Galium aparine) [14]; rate 0.1250 kg/ha
  Preemergence herbicidal rating GALAP: 0.0
GALAP (Galium aparine) [14]; rate 0.2500 kg/ha
  Preemergence herbicidal rating GALAP: 0.0
[15]; rate 0.0620 kg/ha
  Preemergence herbicidal rating IPOHE: 0.0
[15]; rate 0.1250 kg/ha
  Preemergence herbicidal rating IPOHE: 0.0
[15]; rate 0.2500 kg/ha
  Preemergence herbicidal rating IPOHE: 0.0
[16]; rate 0.0620 kg/ha
  Preemergence herbicidal rating ECHCG: 0.0
[16]; rate 0.1250 kg/ha
  Preemergence herbicidal rating ECHCG: 0.0
[16]; rate 0.2500 kg/ha
  Preemergence herbicidal rating ECHCG: 0.0
GLXMA (Soybean); rate 0.0620 kg/ha
  Preemergence herbicidal rating GLXMA: 0.0
GLXMA (Soybean); rate 0.1250 kg/ha
  Preemergence herbicidal rating GLXMA: 0.0
GLXMA (Soybean); rate 0.2500 kg/ha
  Preemergence herbicidal rating GLXMA: 0.0
ZEAMX (Corn, Field) [17]; rate 0.0620 kg/ha
  Preemergence herbicidal rating ZEAMX: 0.0
ZEAMX (Corn, Field) [17]; rate 0.1250 kg/ha
  Preemergence herbicidal rating ZEAMX: 0.0
ZEAMX (Corn, Field) [17]; rate 0.2500 kg/ha
  Preemergence herbicidal rating ZEAMX: 0.0
[18]; rate 0.0320 kg/ha
  ECHORC herbicidal rating: 0.0
[18]; rate 0.1250 kg/ha
  ECHORC herbicidal rating: 0.0
CYPIR (Cyperus iria); rate 0.0320 kg/ha
  CYPIR herbicidal rating: 0.0
CYPIR (Cyperus iria); rate 0.1250 kg/ha
  CYPIR herbicidal rating: 0.0
[19]; rate 0.0320 kg/ha
  MOOVA herbicidal rating: 0.0
[19]; rate 0.1250 kg/ha
  MOOVA herbicidal rating: 0.0
[20]; rate 0.0320 kg/ha
  SAGPY herbicidal rating: 0.0
[20]; rate 0.1250 kg/ha
  SAGPY herbicidal rating: 0.0
ORYSAT (Rice, Tebonnet) [21]
  ORYSAT herbicidal rating (transplanted rice tolerance): 0.0
